This is an account of results in article PMC8844836 (Journal of molecular neuroscience : MN, 2020).

One test has as its target T1, PAC1 (Calu-3 cells) (Homo sapiens, UniProt P41586).
T1 sequence (P41586 21-468): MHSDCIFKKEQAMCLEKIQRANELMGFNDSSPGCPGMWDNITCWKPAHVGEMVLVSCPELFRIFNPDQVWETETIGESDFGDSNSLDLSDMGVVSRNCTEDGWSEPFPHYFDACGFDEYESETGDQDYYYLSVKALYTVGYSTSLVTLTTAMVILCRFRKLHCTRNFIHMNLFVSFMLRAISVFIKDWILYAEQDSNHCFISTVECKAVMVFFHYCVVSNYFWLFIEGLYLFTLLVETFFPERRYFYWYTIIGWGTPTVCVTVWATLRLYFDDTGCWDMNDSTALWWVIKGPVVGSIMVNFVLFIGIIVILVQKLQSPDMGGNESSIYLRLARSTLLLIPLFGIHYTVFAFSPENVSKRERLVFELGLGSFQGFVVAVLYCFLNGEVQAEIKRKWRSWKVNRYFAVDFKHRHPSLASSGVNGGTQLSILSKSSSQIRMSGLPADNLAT
Description: cell-based.

Test [1] deals with HER3. The following applies: NSCLC cells ref Lee et al., 2020; cited from earlier work.
Test [2] has as its system HER3. Kind of test: HER3 tyrosine phosphorylation, Western blot, Calu-3 cells. Format: cell-based. As to conditions: for effect of ROS inhibitors on HER3 transactivation, statistics: Fig. 4B, mean ± S.D. of 3 experiments, relative to PACAP by ANOVA; for effect of ROS inhibitors on PACAP-induced HER3 tyrosine phosphorylation: Western blot (Fig. 4A), 3 experiments.
In the next test the test system is ERK. Kind of test: ERK phosphorylation, Western blot, Calu-3 cells. The format is cell-based. For orientation: Immunoblotting shows a protein as a band on a membrane.
The test system of a further test is Calu-3 cells. Kind of test: Clonogenic assay, Calu-3 cells. Format: cell-based.
For the next test, the system named is NSCLC cells. Description: Proliferation of NSCLC cells. The format is cell-based.
Test [3] deals with HER3. Description: HER3 tyrosine phosphorylation, NSCLC cells. The format is cell-based.
Another test relates to EGFR. As to conditions: NSCLC cells ref Moody et al., 2019; cited from earlier work.
The subject of a further test is HER2. As to conditions: NSCLC cells ref Moody et al., 2019; cited from earlier work.

“Also recorded” adds a separate entry of the source.

For `CSCC[C@H](NC(=O)[C@H](CCC(N)=O)NC(=O)[C@H](CCCCN)NC(=O)[C@H](CCCNC(=N)N)NC(=O)[C@H](Cc1ccc(O)cc1)NC(=O)[C@H](CCCNC(=N)N)NC(=O)[C@H](CO)NC(=O)[C@H](Cc1ccc(O)cc1)NC(=O)[C@H](CO)NC(=O)[C@H](CC(=O)O)NC(=O)[C@@H](NC(=O)[C@@H](N)Cc1ccccc1)[C@@H](C)O)C(=O)N[C@@H](C)C(=O)N[C@H](C(=O)N[C@@H](CCCCN)C(=O)N[C@@H](CCCCN)C(=O)N[C@@H](Cc1ccc(O)cc1)C(=O)N[C@@H](CC(C)C)C(=O)N[C@@H](C)C(=O)N[C@@H](C)C(=O)N[C@H](C(=O)N[C@@H](CC(C)C)C(=O)NCC(=O)N[C@@H](CCCCN)C(=O)N[C@@H](CCCNC(=N)N)C(=O)N[C@@H](Cc1ccc(O)cc1)C(=O)N[C@@H](CCCCN)C(=O)N[C@@H](CCC(N)=O)C(=O)N[C@@H](CCCNC(=N)N)C(=O)N[C@H](C(=O)N[C@@H](CCCCN)C(=O)N[C@@H](CC(N)=O)C(=O)N[C@@H](CCCCN)C(N)=O)C(C)C)C(C)C)C(C)C` [PACAP(6–38)], it took 31.4 ± 4.9 nM to reach half-maximal inhibition against PAC1 (Calu-3 cells) (IC50).

Regarding Bombesin, the HER3 tyrosine phosphorylation result with HER3 [1] is reported as “increases HER3 tyrosine phosphorylation”.

neuregulin (NRG)-1 [NRG-1]: the “HER3 phosphorylation, 5, 10 and 30 min” value in the test with HER3 [2] (Calu-3, PACAP-27 1000 nM or NRG-1 1 μg/ml, 5, 10 and 30 min) was “moderate”. In addition, the “HER3 phosphorylation, 2 min” value in the test on HER3 [2] (Calu-3, PACAP-27 1000 nM or NRG-1 1 μg/ml, 2 min) is given as “weakly stimulates”. For the same compound, in the test with HER3 [2] (Fig. 2D, NRG-1 1 μg/ml, Calu-3, 2, 5, 10 and 30 min), the “HER3 phosphorylation, densitometry statistics, 2, 5, 10 and 30 min” value is listed as “significantly increased”. Further, the “ERK phosphorylation, densitometry statistics, 2, 5, 10 and 30 min” value in the test with ERK (Fig. 2D, NRG-1 1 μg/ml, 2, 5, 10 and 30 min) was “significantly increased”. In the test on ERK (PACAP-27 1000 nM or NRG-1 1 μg/ml, 5, 10 and 30 min), the “ERK phosphorylation, 5, 10 and 30 min” value is listed as “moderate”. In addition, the “ERK phosphorylation, 2 min” value in the test on ERK (PACAP-27 1000 nM or NRG-1 1 μg/ml, 2 min) is recorded as “weakly stimulates”. Further, in the test with Calu-3 cells (NRG-1 0.1 μg/ml, PACAP-27 100 nM, 2 weeks), the “increase in colony number” value is reported as 33%. The “proliferation of NSCLC cells” value in the test on NSCLC cells was “increased the proliferation”. The “HER3 tyrosine phosphorylation, NSCLC cells” value with HER3 [3] is recorded as “increased HER3 tyrosine phosphorylation”.

Consider `COc1cc2ncnc(Nc3ccc(F)c(Cl)c3)c2cc1OCCCN1CCOCC1` [gefitinib], for which the “effect on PACAP-27-induced increase in colony number” value in the test with Calu-3 cells (100 nM PACAP-27) was “impaired”. Also, the “Colony number, + PACAP” value in the test with Calu-3 cells (with 100 nM PACAP-27, PACAP(6–38) 5 μM, gefitinib 1 μM, trastuzumab 0.1 μg/ml, mAb3481 0.1 μg/ml, mean ± S.D. of 3 determinations) is given as 43 ± 5. In the test on NSCLC cells, the “proliferation of NSCLC cells” value is “inhibited proliferation”.

Turning to `c1ccc2c(c1)[I+]c1ccccc1-2` [DPI, diphenylene iodonium], in the test on HER3 [2], the “effect of ROS inhibitors on HER3 transactivation, statistics” value (“effect of ROS inhibitors … statistics” for short) is recorded as “not DPI impaired significantly” and the “effect of ROS inhibitors on PACAP-induced HER3 tyrosine phosphorylation” value is reported as “weakly”. Moreover, the “effect on PACAP-induced EGFR tyrosine phosphorylation (ROS inhibitors)” value in the test on EGFR is reported as “inhibited”. In the test on HER2, the “effect on PACAP-induced HER2 tyrosine phosphorylation (ROS inhibitors)” value is recorded as “inhibited”.

Consider `O=S(=O)(O)c1cc(O)c(O)c(S(=O)(=O)O)c1` [Tiron], for which, in the test on HER3 [2], the “effect of ROS inhibitors … statistics” value is listed as “significantly impair” and the “effect of ROS inhibitors on PACAP-induced HER3 tyrosine phosphorylation” value is on record as “strongly inhibited”. Moreover, the “effect of ROS inhibitors … statistics” value in the test with HER3 [2] (listed as Tir) is “impaired significantly”. In the test on EGFR, the “effect on PACAP-induced EGFR tyrosine phosphorylation (ROS inhibitors)” value is given as “inhibited”. Besides, the “effect on PACAP-induced HER2 tyrosine phosphorylation (ROS inhibitors)” value with HER2 was “inhibited”.

Take `CC(=O)N[C@@H](CS)C(=O)O` [N-acetyl cysteine]: in the test with HER3 [2] (listed as NAC), the “effect of ROS inhibitors … statistics” value is on record as “significantly impair; also recorded: impaired significantly”. In addition, in the test on HER3 [2], the “effect of ROS inhibitors on PACAP-induced HER3 tyrosine phosphorylation” value is given as “strongly inhibited”. Also, the “effect on PACAP-induced EGFR tyrosine phosphorylation (ROS inhibitors)” value with EGFR is recorded as “inhibited”. Also, the “effect on PACAP-induced HER2 tyrosine phosphorylation (ROS inhibitors)” value in the test on HER2 is listed as “inhibited”.
